Results reported in patent US20160257957A1, “METHODS AND COMPOSITIONS FOR TREATMENT OF ANGELMAN SYNDROME AND AUTISM SPECTRUM DISORDERS” (PRESIDENT AND FELLOWS OF HARVARD COLLEGE, priority 2010, published 2016).
Where a SMILES comes first, the peptide text is derived from it. The star is where a group is joined. Cbz = O=C(OCc1ccccc1)*

Assays:
[1] = test system: Arc; conditions: literature; cited from earlier work
[2] = test system: Ube3A-mediated degradation of Arc; test: Ube3A-mediated degradation of Arc in transfected HEK293T cells (Western blot); assay type: cell-based; conditions: HEK293T cells transfected with Arc and Ube3A; MG132 10 μM
Description: (FIG. 9A) Western blot analysis of protein lysates made from brains of wild type and Ube3A knockout mice two hours following kainate acid injection. Immunoprecipitations were performed with an anti-Ube3A antibody and blotted with an anti-Arc antibody to reveal co-immunoprecipitated Arc. Images presented are representative of experiments performed on four independent sets of wildtype and Ube3A knockout mice. (FIG. 9B) Protein lysates were prepared from HEK293T cells transfected with Myc-Arc and HA-tagged ubiquitin and the indicated constructs and then treated with either vehicle control or the proteasome inhibitor MG132 ([…]). Arc was then immunoprecipitated using the anti-Myc antibody 9E10, and Western blot analysis was performed using an anti-Arc antibody to reveal both non-ubiquitinated and ubiquitinated forms of Arc. (FIG. 9C) Mass spectrometric peaks reveal that Ube3A catalyzes the ubiquitination of Arc on lysine 269. […] SEQ ID NO:5 is KGGEFLQYSEGTLSR(SEQ ID NO: 5) shown. Note the presence of two glycine residues covalently linked to the first lysine of this peptide which is indicative of ubiquitin being attached to that specific residue. […] Additional data not pictured here reveal the presence of ubiquitinated lysine 268 as well. […] SEQ ID NO: 6 is LIFAGKGGQLEDGR (SEQ ID NO: 6) shown in upper panel of FIG. 9D. […]

[3] = target: T1, mGluR5 (Mus musculus, UniProt Q3UVX5); conditions: mouse model of FXS, injection; cited from earlier work
T1 construct: host or cells: mouse model of Fragile X syndrome (in vivo)

[4] = test system: muscarinic acetylcholine receptors (mAChR); conditions: literature; cited from earlier work
[5] = test system: Ube3A; test: Kainate-induced seizures: Ube3A mRNA and protein in mouse hippocampus; assay type: in vivo, mice; conditions: kainate-induced seizures vs control
Excerpt: FIGS. 8A-8G show regulation of Ube3A mRNA and protein by neuronal activity. (FIG. 8A) Real-time PCR analysis of Ube3A mRNA extracted from hippocampal neurons at E18+10 DIV treated for six hours with the indicated agent. Data are means+/−SEM from three independent experiments. * indicates statistical significance in pairwise comparison to control: P<0.01 T-test. (FIG. 8B) Quantitative Western blot analysis of Ube3A protein. Protein lysates were collected from hippocampal neurons at E18+8 DIV following treatment with the indicated agent for seven hours. This experiment was performed three times independently and the data were normalized to the control and are presented as means+/−SEM. * indicates P<0.01, # indicates P<0.05 in analysis of statistical significance in pairwise comparison to control by T-test. (FIG. 8C) Quantitative Western blot analysis of Ube3A protein. […] (FIG. 8E) Quantitative Western blot analysis of Ube3A protein from mice 2.5 hours after injection with saline (ctl) or kainic acid (seized) to induce seizures. […] (FIG. 8F) Quantitative Western blot analysis of Ube3A protein from mice housed in standard laboratory cages (control) or placed in cages with novel objects (enriched) for 2.5 hours. […]
Quantitative Real-Time PCR was carried out following standard procedures. […]

T1 sequence (Q3UVX5 19-1203): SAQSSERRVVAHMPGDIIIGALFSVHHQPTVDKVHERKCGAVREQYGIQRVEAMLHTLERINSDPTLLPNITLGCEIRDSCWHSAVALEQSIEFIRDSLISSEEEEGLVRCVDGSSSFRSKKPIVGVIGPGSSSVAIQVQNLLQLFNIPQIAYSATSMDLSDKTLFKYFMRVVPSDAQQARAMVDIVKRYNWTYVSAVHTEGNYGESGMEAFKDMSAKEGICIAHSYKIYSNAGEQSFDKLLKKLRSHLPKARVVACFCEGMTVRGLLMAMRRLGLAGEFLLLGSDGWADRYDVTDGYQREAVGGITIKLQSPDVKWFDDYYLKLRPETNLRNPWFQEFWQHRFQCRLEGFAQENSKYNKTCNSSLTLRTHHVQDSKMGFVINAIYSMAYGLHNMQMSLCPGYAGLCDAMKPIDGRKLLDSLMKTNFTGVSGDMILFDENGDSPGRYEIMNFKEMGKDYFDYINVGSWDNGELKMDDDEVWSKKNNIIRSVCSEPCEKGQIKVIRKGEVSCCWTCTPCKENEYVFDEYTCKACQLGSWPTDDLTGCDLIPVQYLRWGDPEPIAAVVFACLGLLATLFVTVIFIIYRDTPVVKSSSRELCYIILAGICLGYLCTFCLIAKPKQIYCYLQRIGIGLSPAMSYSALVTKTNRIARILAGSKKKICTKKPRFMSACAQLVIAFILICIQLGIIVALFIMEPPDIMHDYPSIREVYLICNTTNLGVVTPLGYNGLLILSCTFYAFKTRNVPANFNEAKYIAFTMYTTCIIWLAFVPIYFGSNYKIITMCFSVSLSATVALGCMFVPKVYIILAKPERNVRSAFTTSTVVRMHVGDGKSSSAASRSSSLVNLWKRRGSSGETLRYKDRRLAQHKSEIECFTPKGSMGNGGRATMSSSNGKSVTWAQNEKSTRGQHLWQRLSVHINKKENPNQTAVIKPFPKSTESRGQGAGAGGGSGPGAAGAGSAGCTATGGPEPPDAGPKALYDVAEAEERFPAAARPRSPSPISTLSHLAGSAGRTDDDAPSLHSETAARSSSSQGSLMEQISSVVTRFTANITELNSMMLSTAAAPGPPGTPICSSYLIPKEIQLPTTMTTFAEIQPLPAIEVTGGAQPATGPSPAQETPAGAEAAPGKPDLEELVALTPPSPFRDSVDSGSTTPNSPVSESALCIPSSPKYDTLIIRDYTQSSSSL

## C[C@@H](CO)CCC[C@@H](C)[C@H]1CC[C@H]2[C@@H]3CC=C4C[C@@H](O)CC[C@]4(C)[C@H]3CC[C@]12C [27-hydroxycholesterol]
[1]
  ARC expression: specifically decreased

## O=S(=O)(NCCNC/C=C/c1ccc(Br)cc1)c1cccc2cnccc12 [H89]
[1]
  ARC expression: induction of ARC expression

## CC(C)C[C@@H](C=O)NC(=O)[C@H](CC(C)C)NC(=O)[C@H](CC(C)C)NC(=O)OCc1ccccc1 [MG132] (Cbz-Leu-Leu-Leu-aldehyde)
[2]
  Ube3A-mediated degradation of Arc: blocked Ube3A-mediated degradation of Arc

## Cc1cccc(C#Cc2ccccc2)n1 [MPEP, 2-methyl-6-(phenylethynyl)-pyridine]
[3]
  surface expression of AMPARs: restored surface expression of AMPARs
  symptoms associated with FXS: prevented the symptoms associated with FXS

## CN1[C@@H]2CC[C@H]1C[C@@H](OC(=O)C(CO)c1ccccc1)C2 (stereo partly drawn) [atropine]
[4]
  mAChR-induced expression of ARC: can be inhibited

## C=C(C)[C@H]1CN[C@H](C(=O)O)[C@H]1CC(=O)O [kainate, kainic acid]
[5]; mouse hippocampus
  Ube3A mRNA level: increased
[5]; mouse
  Ube3A protein level: increased

## insulin: insulin
[1]
  ARC expression: increased
